Patent US10730826B2, “Ketone inhibitors of lysine gingipain” (CORTEXYME, INC., priority 2016, dated 2020)

Key:
[1] = molecular target: Kgp in P. gingivalis W83 bacteria (Porphyromonas gingivalis (Bacteroides gingivalis), UniProt Q51817); assay: Bacterial smear staining with gingipain activity probes; assay type: cell-based; conditions: 1 μM probe, 1 hr, 37° C.; no signal in Kgp knockout
Procedure: Bacteria were then pelleted and resuspended in 20 μl of PBS, which was dropped onto a poly-L-lysine coated slide and kept in a dark box at room temperature for about 2 hrs in order for the droplet to dry. The slide was then washed 3 times in PBS. Slides were mounted with a mounting media containing DAPI stain for bacterial DNA and visualized under fluorescence microscopy.

[2] = molecular target: T1, Kgp (Porphyromonas gingivalis (Bacteroides gingivalis), UniProt Q51817); assay: Activity probe labelling of Kgp in P. gingivalis-infected Jurkat cells (SDS-PAGE); assay type: cell-based; conditions: purified Kgp and infected Jurkat cells, FIG. 6A
Text: The identity of this labeled protein in P. gingivalis-infected cells was confirmed to be Kgp by Western blot.

[3] = molecular target: T2, Kgp (Porphyromonas gingivalis (strain ATCC 33277 / DSM 20709 / CIP 103683 / JCM 12257 / NCTC 11834 / 2561), UniProt B2RLK2); assay: Buccal cell staining with activity probe; assay type: cell-based, human; conditions: 1 μM probe, 1 hr, 37° C., FIG. 7
Procedure: Cells were incubated for 1 hr at 37° C. and pelleted. Cells were resuspended in 20 μL of PBS and placed on poly-L-lysine coated slides, washed, and dried. Slides were mounted with antifade mounting media containing DAPI and visualized under a fluorescence microscope.

[4] = molecular target: T2, Kgp; assay: Gingival tissue staining with activity probe; set-up: species or system human; conditions: patient with periodontal disease, FIG. 5B
Procedure: Slides of fresh frozen gingival tissue (5 micron thickness) were removed from a −80° C. freezer and thawed at RT for 10 min. […] Slides were then washed three times in PBS, 5 min each, then fixed in fresh 4% PFA for 15 min at RT, then washed again three times in PBS. Then slides were incubated with a 1× working Trueblack solution (Biotium) for 30 min at RT. Slides were then washed three times in PBS and mounted with anti-fade mounting media containing DAPI (FIG. 5B).

[5] = molecular target: T1, Kgp; assay: Biotin activity probe pull-down of Kgp from P. gingivalis lysate; assay type: binding; conditions: streptavidin beads, Western blot with CAB102, FIG. 8
Procedure: P. gingivalis W83 was lysed with B-Per buffer for 15 min at 4° C. […] 5 mg of streptavidin-beads were incubated with all samples for 1 hr at room temperature on an inverting platform. The beads were collected after 1 hr and heated at 100° C. for 5 min with 0.1% SDS to disrupt biotin-streptavidin binding. The resulting supernatants were analyzed by SDS-PAGE and Western blotting for specific detection of Kgp with CAB102 (FIG. 8).

Row | Compound | fluorescence of W83 bacteria after exposure to probe [1] | binding of probe to Kgp [2] | staining of buccal cells [3] | fluorescence signal in gingival tissue section [4] | amount of P. gingivalis from which Kgp was pulled down and detected [5]
1 | CC1=CC(C)=[N+]2C1=Cc1ccc(CCC(=O)NCc3cn(-c4cccc(C(=O)NC(CCCCN)C(=O)COc5c(F)cccc5F)c4)nn3)n1[B-]2(F)F (centres unmarked) [Compound 15a] | fluorescent | irreversibly binds to purified Kgp | pronounced, punctate staining | yields a fluorescence signal | –
2 | NCCCCC(NC(=O)c1cccc(-n2cc(CNC(=O)CCCC[C@@H]3SC[C@@H]4NC(=O)N[C@@H]43)nn2)c1)C(=O)COc1c(F)cccc1F (some centres unmarked) [Compound 51a] | – | – | – | – | at least 10^6 CFU
